# From PubChem BioAssay AID1963825 (Molecular Pharmacology Branch, DTP, NCI, 2024)
# Experiment: Anticancer human tumor 997537-175-T-J1-PDC patient-derived colon adenocarcinoma cell line growth inhibition [POLQ]
# Details: 997537-175-T-J1-PDC complex spheroid viability, combination with POLQ inhibitors; for IC50: curve of first compound; for viability, T/C: stronger effect = lower value
# Summary of the method: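 Patient-derived tumour cells were co-cultured with HUVEC and mesenchymal stem cells as multicellular spheroids at 37 °C. They were treated with POLQ inhibitors (novobiocin, ART-558, RP6685) alone or combined with other agents. Top concentrations were at or near clinical Cmax (otherwise 10 microM; SN-38 at 1 microM), decreasing in half-log steps.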
# 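Further: luminescence signal used as a surrogate for viable cells; spheroids exposed to drugs for seven days before readout.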
structure (smiles),measurement,setting,value
O=c1[nH]cc(F)c(=O)[nH]1 + COC1C(OC(N)=O)C(O)C(Oc2ccc3c(O)c(NC(=O)c4ccc(O)c(CC=C(C)C)c4)c(=O)oc3c2C)OC1(C)C,IC50,second compound 0.0316 µM,> 10 µM
same,IC50,second compound 0.1 µM,> 10 µM
same,IC50,second compound 0.316 µM,> 10 µM
same,IC50,second compound 1 µM,> 10 µM
same,IC50,second compound 3.16 µM,> 10 µM
same,IC50,second compound 10 µM,> 10 µM
same,"viability, T/C","second compound 0.0316 µM, first compound 0.0316 µM",102%
same,"viability, T/C","second compound 0.0316 µM, first compound 0.1 µM",102%
same,"viability, T/C","second compound 0.0316 µM, first compound 0.316 µM",112%
same,"viability, T/C","second compound 0.0316 µM, first compound 1 µM",87.8%
same,"viability, T/C","second compound 0.0316 µM, first compound 3.16 µM",78.7%
same,"viability, T/C","second compound 0.0316 µM, first compound 10 µM",76.2%
same,"viability, T/C","second compound 0.1 µM, first compound 0.0316 µM",86.3%
same,"viability, T/C","second compound 0.1 µM, first compound 0.1 µM",104%
same,"viability, T/C","second compound 0.1 µM, first compound 0.316 µM",104%
same,"viability, T/C","second compound 0.1 µM, first compound 1 µM",114%
same,"viability, T/C","second compound 0.1 µM, first compound 3.16 µM",102%
same,"viability, T/C","second compound 0.1 µM, first compound 10 µM",90.3%
same,"viability, T/C","second compound 0.316 µM, first compound 0.0316 µM",95.3%
same,"viability, T/C","second compound 0.316 µM, first compound 0.1 µM",103%
same,"viability, T/C","second compound 0.316 µM, first compound 0.316 µM",105%
same,"viability, T/C","second compound 0.316 µM, first compound 1 µM",87.7%
same,"viability, T/C","second compound 0.316 µM, first compound 3.16 µM",85.2%
same,"viability, T/C","second compound 0.316 µM, first compound 10 µM",97.2%
same,"viability, T/C","second compound 1 µM, first compound 0.0316 µM",96.7%
same,"viability, T/C","second compound 1 µM, first compound 0.1 µM",108%
same,"viability, T/C","second compound 1 µM, first compound 0.316 µM",110%
same,"viability, T/C","second compound 1 µM, first compound 1 µM",89.9%
same,"viability, T/C","second compound 1 µM, first compound 3.16 µM",92.2%
same,"viability, T/C","second compound 1 µM, first compound 10 µM",87.5%
same,"viability, T/C","second compound 3.16 µM, first compound 0.0316 µM",108%
same,"viability, T/C","second compound 3.16 µM, first compound 0.1 µM",104%
same,"viability, T/C","second compound 3.16 µM, first compound 0.316 µM",101%
same,"viability, T/C","second compound 3.16 µM, first compound 1 µM",101%
same,"viability, T/C","second compound 3.16 µM, first compound 3.16 µM",103%
same,"viability, T/C","second compound 3.16 µM, first compound 10 µM",92.6%
same,"viability, T/C","second compound 10 µM, first compound 0.0316 µM",95.8%
same,"viability, T/C","second compound 10 µM, first compound 0.1 µM",98.2%
same,"viability, T/C","second compound 10 µM, first compound 0.316 µM",95.3%
same,"viability, T/C","second compound 10 µM, first compound 1 µM",84.2%
same,"viability, T/C","second compound 10 µM, first compound 3.16 µM",96.9%
same,"viability, T/C","second compound 10 µM, first compound 10 µM",85.3%
